Reference: ChEMBL document CHEMBL2440076, “New triarylpyrazoles as broad-spectrum anticancer agents: design, synthesis, and biological evaluation” (Eur J Med Chem, 2013)

Experiments:
[1] = tested on: HOP-62; assay: Growth inhibition of human HOP62 cells assessed as cell growth at 10 uM after 48 hrs by sulforhodamine B assay; assay type: functional; settings: HOP-62, 48 h, read-out: Activity
[2] = tested on: CAKI-1; assay: Growth inhibition of human CAKI-1 cells assessed as cell growth at 10 uM after 48 hrs by sulforhodamine B assay; assay type: functional; settings: CAKI-1, 48 h, read-out: Activity
[3] = tested on: NCI-H23; assay: Growth inhibition of human NCI-H23 cells assessed as cell growth at 10 uM after 48 hrs by sulforhodamine B assay; assay type: functional; settings: NCI-H23, 48 h, read-out: Activity
[4] = tested on: NCI-H226; assay: Growth inhibition of human NCI-H226 cells after 48 hrs by sulforhodamine B assay; assay type: functional; settings: NCI-H226, 48 h
[5] = tested on: MCF7; assay: Growth inhibition of human MCF7 cells after 48 hrs by sulforhodamine B assay; assay type: functional; settings: MCF7, 48 h
[6] = tested on: PC-3; assay: Growth inhibition of human PC3 cells assessed as cell growth at 10 uM after 48 hrs by sulforhodamine B assay; assay type: functional; settings: PC-3, 48 h, read-out: Activity
[7] = tested on: HOP-62; assay: Growth inhibition of human HOP62 cells after 48 hrs by sulforhodamine B assay; assay type: functional; settings: HOP-62, 48 h
[8] = tested on: UO-31; assay: Growth inhibition of human UO31 cells after 48 hrs by sulforhodamine B assay; assay type: functional; settings: UO-31, 48 h
[9] = tested on: U-251; assay: Growth inhibition of human U251 cells assessed as cell growth at 10 uM after 48 hrs by sulforhodamine B assay; assay type: functional; settings: U-251, 48 h, read-out: Activity
[10] = Growth inhibition of human HCC2998 cells after 48 hrs by sulforhodamine B assay; assay type: functional; settings: HCC 2998, 48 h
[11] = tested on: NCI-H322M; assay: Growth inhibition of human NCI-H322M cells assessed as cell growth at 10 uM after 48 hrs by sulforhodamine B assay; assay type: functional; settings: read-out: Activity
[12] = tested on: MDA-MB-231; assay: Growth inhibition of human MDA-MB-231 cells after 48 hrs by sulforhodamine B assay; assay type: functional; settings: MDA-MB-231, 48 h
[13] = tested on: COLO 205; assay: Growth inhibition of human COLO205 cells assessed as cell growth at 10 uM after 48 hrs by sulforhodamine B assay; assay type: functional; settings: COLO 205, 48 h, read-out: Activity
[14] = tested on: IGROV-1; assay: Growth inhibition of human IGROV1 cells after 48 hrs by sulforhodamine B assay; assay type: functional; settings: IGROV-1, 48 h
[15] = tested on: SK-OV-3; assay: Growth inhibition of human SKOV3 cells assessed as cell growth at 10 uM after 48 hrs by sulforhodamine B assay; assay type: functional; settings: SK-OV-3, 48 h, read-out: Activity
[16] = tested on: OVCAR-5; assay: Growth inhibition of human OVCAR5 cells after 48 hrs by sulforhodamine B assay; assay type: functional; settings: OVCAR-5, 48 h
[17] = tested on: SK-MEL-28; assay: Growth inhibition of human SK-MEL-28 cells after 48 hrs by sulforhodamine B assay; assay type: functional; settings: SK-MEL-28, 48 h
[18] = Growth inhibition of human NCI-ADR-RES cells assessed as cell growth at 10 uM after 48 hrs by sulforhodamine B assay; assay type: functional; settings: read-out: Activity
[19] = tested on: K562; assay: Growth inhibition of human K562 cells after 48 hrs by sulforhodamine B assay; assay type: functional; settings: K562, 48 h
[20] = tested on: HL-60(TB); assay: Growth inhibition of human HL-60(TB) cells assessed as cell growth at 10 uM after 48 hrs by sulforhodamine B assay; assay type: functional; settings: HL-60, 48 h, read-out: Activity
[21] = tested on: LOX IMVI; assay: Growth inhibition of human LOXIMVI cells after 48 hrs by sulforhodamine B assay; assay type: functional
[22] = tested on: MOLT-4; assay: Growth inhibition of human MOLT4 cells after 48 hrs by sulforhodamine B assay; assay type: functional; settings: MOLT-4, 48 h
[23] = tested on: HOP-92; assay: Growth inhibition of human HOP92 cells assessed as cell growth at 10 uM after 48 hrs by sulforhodamine B assay; assay type: functional; settings: HOP-92, 48 h, read-out: Activity
[24] = tested on: SF-268; assay: Growth inhibition of human SF268 cells assessed as cell growth at 10 uM after 48 hrs by sulforhodamine B assay; assay type: functional; settings: SF-268, 48 h, read-out: Activity
[25] = tested on: NCI-H522; assay: Growth inhibition of human NCI-H522 cells assessed as cell growth at 10 uM after 48 hrs by sulforhodamine B assay; assay type: functional; settings: NCI-H522, 48 h, read-out: Activity
[26] = tested on: BT-549; assay: Growth inhibition of human BT549 cells assessed as cell growth at 10 uM after 48 hrs by sulforhodamine B assay; assay type: functional; settings: BT-549, 48 h, read-out: Activity
[27] = tested on: UACC-62; assay: Growth inhibition of human UACC62 cells after 48 hrs by sulforhodamine B assay; assay type: functional; settings: UACC-62, 48 h
[28] = tested on: Malme-3M; assay: Growth inhibition of human MALME-3M cells after 48 hrs by sulforhodamine B assay; assay type: functional
[29] = tested on: SK-MEL-2; assay: Growth inhibition of human SK-MEL-2 cells after 48 hrs by sulforhodamine B assay; assay type: functional; settings: SK-MEL-2, 48 h
[30] = tested on: NCI-H23; assay: Growth inhibition of human NCI-H23 cells after 48 hrs by sulforhodamine B assay; assay type: functional; settings: NCI-H23, 48 h
[31] = tested on: SF-295; assay: Growth inhibition of human SF295 cells after 48 hrs by sulforhodamine B assay; assay type: functional, cell-based; settings: SF-295, 48 h
[32] = tested on: MDA-MB-435; assay: Growth inhibition of human MDA-MB-435 cells assessed as cell growth at 10 uM after 48 hrs by sulforhodamine B assay; assay type: functional; settings: MDA-MB-435, 48 h, read-out: Activity
[33] = tested on: LOX IMVI; assay: Growth inhibition of human LOXIMVI cells assessed as cell growth at 10 uM after 48 hrs by sulforhodamine B assay; assay type: functional; settings: read-out: Activity
[34] = tested on: SF-268; assay: Growth inhibition of human SF268 cells after 48 hrs by sulforhodamine B assay; assay type: functional; settings: SF-268, 48 h
[35] = read-out: LC50 (the source's name)

COc1cc(-c2nn(-c3cccc(NC(=O)Nc4ccc(Cl)c(Cl)c4)c3)cc2-c2ccncc2)ccc1Cl gave a growth at 10 µM [1] of 10.2%, a growth at 10 µM [2] of 16.8% and a growth at 10 µM [3] of 1.67%. The GI50 [4] was 1350 nM, the TGI [4] was greater than 50000 nM and the CC50 [4, 35] was greater than 50000 nM. For the same compound, the GI50 [5] was 945 nM, the LC50 [5] was greater than 50000 nM and the TGI [5] was greater than 50000 nM. The growth at 10 µM [6] was -17.6%, the GI50 [7] was 1440 nM and the TGI [7] was 4900 nM. The CC50 [7, 35] was greater than 50000 nM, the GI50 [8] was 845 nM and the TGI [8] was 4980 nM. For the same compound, the CC50 [8, 35] was greater than 50000 nM, the growth at 10 µM [9] was -6.02% and the GI50 [10] was 1560 nM. It also gave a TGI [10] of 6200 nM, a CC50 [10, 35] greater than 50000 nM and a growth at 10 µM [11] of 38.8%. It also gave a GI50 [12] of 698 nM, an LC50 [12] of 12900 nM and a TGI [12] of 1920 nM. For the same compound, the growth at 10 µM [13] was -80.4%, the GI50 [14] was 1180 nM and the LC50 (concentration killing 50% of cells) [14] was greater than 50000 nM. It also gave a TGI [14] of 3480 nM, a growth at 10 µM [15] of 11.8% and a GI50 [16] of 2130 nM. It also gave an LC50 (concentration killing 50% of cells) [16] greater than 50000 nM, a TGI [16] greater than 50000 nM and a GI50 [17] of 1430 nM. It also gave an LC50 [17] greater than 50000 nM, a TGI [17] of 7320 nM and a growth at 10 µM [18] of 0.32%. The GI50 [19] was 890 nM, the TGI [19] was greater than 50000 nM and the CC50 [19, 35] was greater than 50000 nM. The growth at 10 µM [20] was -18.1%, the GI50 [21] was 954 nM and the LC50 [21] was greater than 50000 nM. For the same compound, the TGI [21] was 2620 nM, the GI50 [22] was 1100 nM and the TGI [22] was 4480 nM. It also gave a CC50 [22, 35] greater than 50000 nM, a growth at 10 µM [23] of -34.3% and a growth at 10 µM [24] of 17.9%. It also gave a growth at 10 µM [25] of -14.7%, a growth at 10 µM [26] of 6.23% and a GI50 [27] of 773 nM. The LC50 (50% lethal concentration) [27] was 4490 nM, the TGI [27] was 1860 nM and the GI50 [28] was 926 nM. For the same compound, the LC50 (concentration killing 50% of starting cells) [28] was greater than 50000 nM, the TGI [28] was 2420 nM and the GI50 [29] was 1140 nM. It also gave an LC50 (50% lethal concentration) [29] of 4850 nM, a TGI [29] of 2350 nM and a GI50 [30] of 1410 nM. For the same compound, the LC50 [30] was greater than 50000 nM, the TGI [30] was 5190 nM and the GI50 [31] was 691 nM. For the same compound, the IC50 [31] was 690 nM, the TGI [31] was 2530 nM and the CC50 [31, 35] was greater than 50000 nM. It also gave a growth at 10 µM [32] of -45.8%, a growth at 10 µM [33] of 1.38% and a GI50 [34] of 1510 nM. The TGI [34] was 20300 nM and the CC50 [34, 35] was greater than 50000 nM.
